Measured values as given in patent publication US20230028880A1, “CD38-BINDING AGENTS AND USES THEREOF” (Biohaven Therapeutics Ltd., priority 2019, published 2023).
Several values for one entry are separate records, joined by “and”; a condition that tells them apart may be missing. Equal entries are not always repeated. *1 amine or outer side, *2 acyl side, *3 side chain or, on linkers, in order; H or OH if unused. Bridges are numbered along the chain shown (N, C = ends). Where no end group is shown, it is not given here. [ ]: non-standard residue; d: D form. d(γGlu) = O=C(O)[C@@H](CCC(=O)[*:2])N[*:1]; 12Ado = NCCCCCCCCCCCC(=O)O

How the values were obtained:
[1] = test system: Effector cells (ADCC reporter cells) with Daudi cells; assay: ADCC reporter assay: Daudi cells, IVIG and ADCC reporter effector cells (luciferase, RLU); format: cell-based; details: IVIG; for EC50: ADCC reporter assay; for Luminescence, ADCC reporter assay: 18 h, duplicate columns
Method: Daudi (ATCC CCL-213) cells were resuspended in Opti-MEM (Thermo Fisher Scientific #31985070), counted (Life Technologies Countless II cell counter) and plated (5,000 cells in 25 uL/well; Corning plates: 3917). Compounds w diluted in DMSO (MP 191418) to 1000× the starting concentration used in the assay into a 96 well polypropylene plate (Corning 3357). They were then serially diluted in ½ log increments to generate 8 concentrations in DMSO (assay dependent). These DMSO stocks were then step diluted 1/250 into Opti-MEM. Step diluted compound range was then added into the polypropylene assay plate 25 uL/well. The human antibody solution (Grifols IVIG Fleogogamma #61953-0005-2) was diluted to 40 ug/mL and added 25 uL/well. Effector cells (ADCC reporter cells—Promega kit: G7018) were added 37,500 in 25 uL/well. The assay was then incubated 18 h at 37° C. Following the induction period, the plate was equilibrated to 25° C. followed the addition of the luciferase substrate (75 uL/well, 1 vial in 10 mL of Bio-Glo assay buffer, Promega kit: G7018). The luminescence was measured (Biotek Synergy H1 microplate reader).

Daudi cells [2] = assay: KILR ADCC killing assay: KILR-transfected Daudi cells with purified NK cells (% dead cells); format: cell-based; details: KILR Daudi cells with purified NK cells, duplicate columns
Description: In some embodiments, CD38-ABT ARMs bind to target cells and antibodies, e.g., human antibodies. In some embodiments, such ternary structures present antibodies to effector cells such as NK cell and bind to, e.g., CD16a receptors. […] Daudi cells were transfected with KILR reporter construct (DiscoverX #97-0002). An attenuated lentivirus was designed to deliver a Moloney Murine Leukemia Virus (MMLV) engineered to drive expression of a housekeeping gene tagged with Enhanced ProLabel (ePL) a beta-Galactosidase (beta-gal) reporter fragment. This construct was designed to remain inside cells. Death leads to the release of the KILR reporter protein into the medium. Detection reagent (DiscoverX #97-0001L) contained the complementing beta-gal reporter fragment enzyme acceptor (EA). The two components combined to generate a chemiluminescent signal.

Daudi cells [3] = assay: Ternary binding assay: recruitment of PE-labeled human IgG1k to Daudi cells (flow cytometry, MFI); format: cell-based; details: duplicate columns
Method: Various technologies can be utilized to assess and/or characterize recruitment of antibodies to target cells, e.g., cancer cells. One such assay is a ternary binding assay. An exemplary protocol is described herein. Compounds were diluted in DMSO (MP 191418) to 1000× the starting concentration used in the assay into a 96 well polypropylene plate (Corning 3357). They were then serially diluted in ½ log increments to generate 8-12 concentrations in DMSO (assay dependent). These DMSO stocks were then step diluted 1/100 into PBS (VWR Cat. #20012043). Step diluted compound range was then added into the polypropylene assay plate 1/10 the volume of the assay volume. Daudi (ATCC CCL-213), a non-adherent cell line, were counted and centrifuged and resuspended at a concentration of 100,000 cells per 90 ul in Flow buffer: 1% BSA (American Bio AB01088-00100); 0.5 mM EDTA (VWR 45001-122); PBS (VWR Cat. #20012043) with 11.1 ug/mL human IgG1k Phycoerythrin labeled (SouthernBiotech #0151K-09 PE). The cells were then added into the polypropylene plate with the step diluted compounds and incubated at 37° C. for 30 min. At the end of the incubation, the cells were centrifuged and washed 2× with How buffer containing 0.5% Tween 20 (BP337-500). Samples were analyzed on a BD FacsCelesta. Mean fluorescence was analyzed using Graphpad Prism and curves were fit using log(inhibitor) vs. response—Variable slope (four parameters).

[4] = molecular target: CD38 on Daudi cells (human) (UniProt P28907); assay: ternary binding, flow cytometry: Daudi cells + PE human IgG1k

For CCCCC[C@@H]1NC(=O)[C@H](CCCNC(=N)N)NC(=O)[C@H](C)NC(=O)CSC[C@@H](C(=O)NCCCC(=O)N[C@@H](CC(=O)O)C(=O)N[C@H]2CSSC[C@@H](C(=O)N[C@H](C(N)=O)[C@@H](C)O)NC(=O)[C@H](Cc3c[nH]c4ccccc34)NC(=O)[C@H](C(C)C)NC(=O)[C@H](CC(C)C)NC(=O)[C@H](CCC(=O)O)NC(=O)CNC(=O)[C@H](CC(C)C)NC(=O)[C@H](Cc3c[nH]cn3)NC(=O)[C@H](Cc3c[nH]c4ccccc34)NC(=O)[C@H](C)NC2=O)NC(=O)[C@H](CC(=O)O)NC(=O)[C@H](CCCCC)NC(=O)[C@H](Cc2ccc(-c3ccccc3)cc2)NC(=O)[C@H](CC(C)C)NC(=O)[C@H](C(C)C)NC(=O)CNC(=O)[C@H](CC(=O)O)NC(=O)[C@H](Cc2c[nH]cn2)NC(=O)[C@H](Cc2ccc(O)cc2)NC1=O [I-30], the EC50 [1] was 12 nM, the “Luminescence, ADCC reporter assay” value ([1]; compound 1 nM) was 4174 RLU and 4217 RLU and the “Luminescence, ADCC reporter assay” value ([1]; compound 3 nM) was 4269 RLU and 4452 RLU. For the same molecule, the “Luminescence, ADCC reporter assay” value ([1]; compound 10 nM) was 11442 RLU and 11535 RLU, the “Luminescence, ADCC reporter assay” value ([1]; compound 30 nM) was 17189 RLU and 17066 RLU and the “Luminescence, ADCC reporter assay” value ([1]; compound 100 nM) was 20600 RLU and 19749 RLU. The “Luminescence, ADCC reporter assay” value ([1]; compound 300 nM) was 22074 RLU and 21976 RLU, the “Luminescence, ADCC reporter assay” value ([1]; compound 1000 nM) was 22085 RLU and 21589 RLU and the “Luminescence, ADCC reporter assay” value ([1]; compound 3000 nM) was 19456 RLU and 17760 RLU. For the same molecule, the “% dead cells, KILR ADCC killing assay” value (Daudi cells [2]; compound 1 nM) was 14.3% and 14.7%, the “% dead cells, KILR ADCC killing assay” value (Daudi cells [2]; compound 3 nM) was 14.7% and 15.7% and the “% dead cells, KILR ADCC killing assay” value (Daudi cells [2]; compound 10 nM) was 14.1%. The “% dead cells, KILR ADCC killing assay” value (Daudi cells [2]; compound 100 nM) was 17.1% and 18.1%, the “% dead cells, KILR ADCC killing assay” value (Daudi cells [2]; compound 300 nM) was 19% and 20.6% and the “% dead cells, KILR ADCC killing assay” value (Daudi cells [2]; compound 1000 nM) was 19.2% and 20%.

CCCCC[C@@H]1NC(=O)[C@H](CCCNC(=N)N)NC(=O)[C@H](C)NC(=O)CSC[C@@H](C(=O)NCCOCCOCCOCCOCCOCCOCCOCCOCCC(=O)NCCOCCOCCOCCOCCOCCOCCOCCOCCC(=O)N[C@@H](CC(=O)O)C(=O)N[C@H]2CSSC[C@@H](C(=O)N[C@H](C(=O)O)[C@@H](C)O)NC(=O)[C@H](Cc3c[nH]c4ccccc34)NC(=O)[C@H](C(C)C)NC(=O)[C@H](CC(C)C)NC(=O)[C@H](CCC(=O)O)NC(=O)CNC(=O)[C@H](CC(C)C)NC(=O)[C@H](Cc3c[nH]cn3)NC(=O)[C@H](Cc3c[nH]c4ccccc34)NC(=O)[C@H](C)NC2=O)NC(=O)[C@H](CC(=O)O)NC(=O)[C@H](CCCCC)NC(=O)[C@H](Cc2ccc(-c3ccccc3)cc2)NC(=O)[C@H](CC(C)C)NC(=O)[C@H](C(C)C)NC(=O)[C@H](CCC(N)=O)NC(=O)[C@H](CC(=O)O)NC(=O)[C@H](Cc2c[nH]cn2)NC(=O)[C@H](Cc2ccc(O)cc2)NC1=O [I-41] was tested, and the “MFI, recruitment of PE-labeled human IgG1k to Daudi cells” value (shortened to “MFI, recruitment”) (Daudi cells [3]; compound 0.03 nM) was 4489 and 2739, the “MFI, recruitment” value (Daudi cells [3]; compound 0.1 nM) was 7612 and 4790 and the “MFI, recruitment” value (Daudi cells [3]; compound 0.3 nM) was 3076 and 2422. The “MFI, recruitment” value (Daudi cells [3]; compound 1 nM) was 5751 and 3841, the “MFI, recruitment” value (Daudi cells [3]; compound 3 nM) was 5283 and 6064 and the “MFI, recruitment” value (Daudi cells [3]; compound 10 nM) was 9033 and 5065. The “MFI, recruitment” value (Daudi cells [3]; compound 30 nM) was 10036 and 10734, the “MFI, recruitment” value (Daudi cells [3]; compound 100 nM) was 19188 and 14043 and the “MFI, recruitment” value (Daudi cells [3]; compound 300 nM) was 23096 and 16482. The “MFI, recruitment” value (Daudi cells [3]; compound 1000 nM) was 13982 and 11893, the “MFI, recruitment” value (Daudi cells [3]; compound 3000 nM) was 18339 and 21903 and the “Luminescence, ADCC reporter assay” value ([1]; compound 0.3 nM) was 4814 RLU and 4964 RLU. For the same molecule, the “Luminescence, ADCC reporter assay” value ([1]; compound 1 nM) was 6793 RLU and 6656 RLU, the “Luminescence, ADCC reporter assay” value ([1]; compound 3 nM) was 15011 RLU and 15516 RLU and the “Luminescence, ADCC reporter assay” value ([1]; compound 10 nM) was 26140 RLU and 28413 RLU. The “Luminescence, ADCC reporter assay” value ([1]; compound 30 nM) was 35410 RLU and 36310 RLU, the “Luminescence, ADCC reporter assay” value ([1]; compound 100 nM) was 40904 RLU and 39344 RLU and the “Luminescence, ADCC reporter assay” value ([1]; compound 300 nM) was 38409 RLU and 39619 RLU. The “Luminescence, ADCC reporter assay” value ([1]; compound 1000 nM) was 29516 RLU and 26828 RLU.

In the case of CCCCC[C@@H]1NC(=O)[C@H](CCCNC(=N)N)NC(=O)[C@H](C)NC(=O)CSC[C@@H](C(=O)NCCOCCOCCOCCOCCOCCOCCOCCOCCC(=O)NCCOCCOCCOCCOCCOCCOCCOCCOCCC(=O)N[C@@H](CC(=O)O)C(=O)N[C@H]2CSSC[C@@H](C(=O)N[C@H](C(=O)O)[C@@H](C)O)NC(=O)[C@H](Cc3c[nH]c4ccccc34)NC(=O)[C@H](C(C)C)NC(=O)[C@H](CC(C)C)NC(=O)[C@H](CCC(=O)O)NC(=O)CNC(=O)[C@H](CC(C)C)NC(=O)[C@H](Cc3c[nH]cn3)NC(=O)[C@H](Cc3c[nH]c4ccccc34)NC(=O)[C@H](C)NC2=O)NC(=O)[C@H](CC(=O)O)NC(=O)[C@H](CCCCC)NC(=O)[C@H](Cc2ccc(-c3ccccc3)cc2)NC(=O)[C@H](CC(C)C)NC(=O)[C@H](C(C)C)NC(=O)[C@H](CC(N)=O)NC(=O)[C@H](CC(=O)O)NC(=O)[C@H](Cc2c[nH]cn2)NC(=O)[C@H](Cc2ccc(O)cc2)NC1=O [I-42], the “MFI, recruitment” value (Daudi cells [3]; compound 0.03 nM) is reported as 7077 and 5990, the “MFI, recruitment” value (Daudi cells [3]; compound 0.1 nM) is reported as 5737 and 4704 and the “MFI, recruitment” value (Daudi cells [3]; compound 0.3 nM) is reported as 3879 and 4284. The “MFI, recruitment” value (Daudi cells [3]; compound 1 nM) was 4981 and 6900, the “MFI, recruitment” value (Daudi cells [3]; compound 3 nM) was 6000 and 5101 and the “MFI, recruitment” value (Daudi cells [3]; compound 10 nM) was 6189 and 11302. For the same molecule, the “MFI, recruitment” value (Daudi cells [3]; compound 30 nM) was 9700 and 15077, the “MFI, recruitment” value (Daudi cells [3]; compound 100 nM) was 16690 and 17157 and the “MFI, recruitment” value (Daudi cells [3]; compound 300 nM) was 14190 and 18622. For the same molecule, the “MFI, recruitment” value (Daudi cells [3]; compound 1000 nM) was 20476 and 15023, the “MFI, recruitment” value (Daudi cells [3]; compound 3000 nM) was 13519 and 15909 and the EC50 [1] was 1.4 nM. The “Luminescence, ADCC reporter assay” value ([1]; compound 0.3 nM) was 4468 RLU and 4661 RLU, the “Luminescence, ADCC reporter assay” value ([1]; compound 1 nM) was 13795 RLU and 13686 RLU and the “Luminescence, ADCC reporter assay” value ([1]; compound 3 nM) was 20721 RLU and 20652 RLU. The “Luminescence, ADCC reporter assay” value ([1]; compound 10 nM) was 32317 RLU and 32373 RLU, the “Luminescence, ADCC reporter assay” value ([1]; compound 30 nM) was 36909 RLU and 40202 RLU and the “Luminescence, ADCC reporter assay” value ([1]; compound 100 nM) was 40344 RLU and 39296 RLU. For the same molecule, the “Luminescence, ADCC reporter assay” value ([1]; compound 300 nM) was 39826 RLU and 37835 RLU and the “Luminescence, ADCC reporter assay” value ([1]; compound 1000 nM) was 27516 RLU and 28425 RLU.

B1: I-28 (peptide, part only; not given: PEG8 unit, part only)
peptide: [d(γGlu)][d(γGlu)][dE](12Ado)[d(γGlu)][d(γGlu)]GGDCAWHLGELVWCT
modifications: disulfide 9-19; not fully specified (N-terminus); also: N-terminal PEG8 joins a further peptide chain not given here
B1 was tested, and the MFI at 1 nM [4] was 216 and 385, the MFI at 3 nM [4] was 400 and 751 and the MFI at 10 nM [4] was 1970 and 1940. The MFI at 30 nM [4] was 4030 and 4740, the MFI at 100 nM [4] was 5110 and 5380 and the MFI at 300 nM [4] was 6240 and 5320. For the same molecule, the MFI at 1000 nM [4] was 5150 and 5380 and the MFI at 3000 nM [4] was 5220 and 5330.
